# Tests used:
# human GYS1 = human GYS1 (Homo sapiens (Human), UniProt P13807); experiment: GYS1 coupled enzyme assay (PK/LDH); type: biochemical; conditions: recombinant hGYS1/GN1 protein; geometric mean of at least 2 assay runs
# Text: (§1) The GYS1 coupled enzyme assay is a kinetic biochemical assay that indirectly quantifies the rate of glycogen synthesis by coupling the conversion of GYS1 substrate UDP-glucose into UDP with downstream enzymatic reactions. UDP is released from UDP-glucose as glucose monomers are linked into the growing glycogen strand by GYS1. The coupled assay then proceeds with pyruvate kinase utilizing UDP and phospho (enol) pyruvate (PEP) to form pyruvate. Lactate dehydrogenase then converts pyruvate and NADH into lactate and NAD+. Oxidation of NADH to NAD+ can be measured continuously with a plate reader by quantifying the decrease in NADH absorbance at 340 nm over time.
# Compounds that inhibit the hGYS1 enzyme and, subsequently, the downstream conversion of NADH to NAD+, were tested using assay ready plates (black, clear bottom 384 well plates) in a final DMSO reaction volume of 2.5% DMSO. The Assay Buffer contained 50 mM Tris pH 7.5, 2 mM MgCl2, and 100 mM KCl. Fresh stocks of BSA at a final concentration of 0.02% and TCEP at 1 mM were added before splitting buffer into hGYS1 buffer and substrate buffer. To the hGYS1 buffer, rabbit liver glycogen was added at a final concentration of 0.2% glycogen. Glucose-6-Phosphate was added at 1 mM, recombinant hGYS1/GN1 protein was added at 50 nM to the substrate buffer, phosphoenolpyruvate (PEP) was added at 2 mM, UDP-Glucose was added at 0.8 mM, NADH) was added at 0.6 mM, and Pyruvate Kinase/Lactate Dehydrogenase was added at 20 units/mL. The reaction was initiated by mixing hGYS1 buffer and substrate buffer at a 1:1 ratio. Both buffers were plated using a liquid dispensing device with hGYS1 buffer plated first followed by the substrate buffer. Plates were spun briefly to eliminate air bubbles and are immediately read in continuous mode at an absorbance of 340 nm, for 10 time points in one-minute increments, for a total of 10 minutes. The slope from these 10 time points was normalized to the positive and negative control wells.
# (§2) Unless otherwise specified, IC50 values are reported as the geometric mean of at least 2 assay runs on separate days. Each run represents the average of a technical replicate, where each compound was assayed twice in the same plate.
# human GYS2 = human GYS2 (Homo sapiens (Human), UniProt P54840); experiment: GYS2 coupled enzyme assay (PK/LDH); type: biochemical; conditions: recombinant hGYS2/GN1 protein; geometric mean of at least 2 assay runs
# Sequence of human GYS2 (P54840 whole entry): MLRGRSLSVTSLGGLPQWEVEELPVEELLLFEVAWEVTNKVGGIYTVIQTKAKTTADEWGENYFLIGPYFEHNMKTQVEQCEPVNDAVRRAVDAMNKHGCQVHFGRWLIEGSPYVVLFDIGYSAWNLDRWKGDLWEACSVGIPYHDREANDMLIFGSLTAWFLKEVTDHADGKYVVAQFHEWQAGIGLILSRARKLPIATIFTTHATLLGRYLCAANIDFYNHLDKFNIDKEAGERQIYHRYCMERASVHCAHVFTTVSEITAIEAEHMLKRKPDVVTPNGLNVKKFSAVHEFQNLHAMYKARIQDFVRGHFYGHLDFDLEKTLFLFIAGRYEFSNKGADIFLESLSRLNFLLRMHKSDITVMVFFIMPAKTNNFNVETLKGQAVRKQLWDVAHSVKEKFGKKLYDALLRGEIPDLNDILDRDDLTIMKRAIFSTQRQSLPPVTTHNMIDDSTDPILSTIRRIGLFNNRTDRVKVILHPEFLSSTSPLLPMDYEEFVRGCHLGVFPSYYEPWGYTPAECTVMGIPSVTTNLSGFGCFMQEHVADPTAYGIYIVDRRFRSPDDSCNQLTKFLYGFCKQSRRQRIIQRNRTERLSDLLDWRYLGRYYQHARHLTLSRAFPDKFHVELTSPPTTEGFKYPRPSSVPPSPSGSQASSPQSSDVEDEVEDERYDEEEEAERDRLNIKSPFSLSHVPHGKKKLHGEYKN
# Sequence of human GYS2 (P46976 whole entry partner): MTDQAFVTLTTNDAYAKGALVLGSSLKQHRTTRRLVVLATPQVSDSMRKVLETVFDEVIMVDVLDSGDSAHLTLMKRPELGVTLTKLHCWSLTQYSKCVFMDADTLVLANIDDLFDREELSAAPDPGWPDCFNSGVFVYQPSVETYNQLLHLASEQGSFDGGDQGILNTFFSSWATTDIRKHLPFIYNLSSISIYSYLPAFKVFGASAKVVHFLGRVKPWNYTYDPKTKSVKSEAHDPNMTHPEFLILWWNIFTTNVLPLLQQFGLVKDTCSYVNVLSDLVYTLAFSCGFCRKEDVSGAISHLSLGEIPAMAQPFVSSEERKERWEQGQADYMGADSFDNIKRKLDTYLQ
# Text: as §1, with “GYS2” for “GYS1”, “GYS2.” for “GYS1.”
# Compounds that inhibit the hGYS2 enzyme and, subsequently, the downstream conversion of NADH to NAD+, were tested using assay ready plates (black, clear bottom 384 well plates) in a final DMSO reaction volume of 2.5% DMSO. The Assay Buffer contained 50 mM Tris pH 7.5, 2 mM MgCl2, and 100 mM KCl. Fresh stocks of BSA at a final concentration of 0.02% and TCEP 1 mM were added before splitting buffer into hGYS2 buffer and substrate buffer. To the hGYS2 buffer, rabbit liver glycogen was added at a final concentration of 0.2% glycogen. Glucose-6-Phosphate was added at 2 mM, recombinant hGYS2/GN1 protein was added at 200 nM to the substrate buffer, phosphoenolpyruvate (PEP) was added at 2 mM, UDP-Glucose was added at 2 mM, NADH was added at 0.6 mM, and Pyruvate Kinase/Lactate Dehydrogenase was added at 20 units/mL. The reaction was initiated by mixing hGYS2 buffer and substrate buffer at a 1:1 ratio. Both buffers were plated using a liquid dispensing device with hGYS2 buffer plated first followed by the substrate buffer. Plates were spun briefly to eliminate air bubbles and are immediately read in continuous mode at an absorbance of 340 nm, for 10 time points in one-minute increments, for a total of 10 minutes. The slope from these 10 time points was normalized to the positive and negative control wells.
# as §2, with “2 assay runs on separate days. […] Unless otherwise specified, IC50 values are reported as the geometric mean of at least two” for “2”
# [1] = biological target: hGYS1 enzyme, glycogen synthesis in HeLa cells (Homo sapiens (Human), UniProt P13807); experiment: GYS1 cell based assay (glycogen synthesis in HeLa cells, Glucose-glo); conditions: starved HeLa cells, 24 h incubation; geometric mean of at least 2 assay runs; read-out: Cellular IC50
# Sequence of hGYS1 enzyme, glycogen synthesis in HeLa cells (P13807 whole entry): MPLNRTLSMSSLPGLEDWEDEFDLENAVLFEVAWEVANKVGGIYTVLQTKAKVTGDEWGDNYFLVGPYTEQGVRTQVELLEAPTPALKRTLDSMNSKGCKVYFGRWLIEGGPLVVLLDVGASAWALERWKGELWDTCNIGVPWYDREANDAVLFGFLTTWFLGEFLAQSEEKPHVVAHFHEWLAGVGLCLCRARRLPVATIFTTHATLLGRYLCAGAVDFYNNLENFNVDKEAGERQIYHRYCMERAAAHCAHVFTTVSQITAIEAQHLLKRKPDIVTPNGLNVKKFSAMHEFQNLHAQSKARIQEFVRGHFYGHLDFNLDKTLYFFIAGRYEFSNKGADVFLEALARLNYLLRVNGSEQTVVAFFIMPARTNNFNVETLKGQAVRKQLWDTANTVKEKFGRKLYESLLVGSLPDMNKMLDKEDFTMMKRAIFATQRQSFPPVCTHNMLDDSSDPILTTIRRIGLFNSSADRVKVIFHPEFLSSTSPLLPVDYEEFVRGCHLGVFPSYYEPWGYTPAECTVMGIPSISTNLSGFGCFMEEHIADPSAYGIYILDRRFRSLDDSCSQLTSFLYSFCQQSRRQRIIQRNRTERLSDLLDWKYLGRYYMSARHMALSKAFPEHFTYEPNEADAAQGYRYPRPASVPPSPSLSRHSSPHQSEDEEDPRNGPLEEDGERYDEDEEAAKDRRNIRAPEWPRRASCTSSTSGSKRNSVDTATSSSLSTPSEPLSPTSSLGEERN
# Text: The GYS1 cell based assay is a bioluminescent assay that quantifies the glucose resulting from glycogen digestion; the quantified glucose is an indirect measure of GYS1 glycogen synthesis. Newly synthesized glycogen is digested using Glucoamylase; the resulting glucose is quantified by using the Glucose-glo assay kit from Promega. Glucose-glo works by coupling glucose oxidation and NADH production with a bioluminescent system that is activated with NADH. Glucose is oxidized by Glucose dehydrogenase and the reaction reduces NAD+ to NADH; NADH activates Reductase which reduces a pro-luciferin Reductase Substrate to luciferin. Luciferin is detected in a luciferase reaction using Ultra-Glo rLuciferase and ATP, and the luminesce produced is proportional to the glucose in the sample. The luminescence is measured as a single point read in a plate reader.
# Compounds that inhibit the hGYS1 enzyme and, subsequently, the glycogen synthesis in cells, were tested using assay ready plates (white, clear bottom 384 well plates) in a final DMSO reaction volume of 1% DMSO. Compounds in the assay ready plates were mixed with media with no additives, except for 20 mM glucose prior to cell addition. HeLa cells were starved in media with no additives, except for 1× Glutamax for 24 h. Starved HeLa cells were plated, in a 1:1 ratio to the media in the assay ready plate and incubated for 24 h at 37° C. and 5% CO2. Cells were washed in 1×PBS buffer and lysed in lysis buffer containing 50% 1×PBS and 25% 0.3 N HCl of the final volume in the well or reaction volume; cells were incubated with lysis buffer for 10 minutes and quenched with the remaining 25% of the reaction volume that consisted of 450 mM Tris pH 8.0. Lysates were mixed in a 1:1 ratio with Glucoamylase in 100 mM Sodium Acetate buffer, pH 5.3; the mixture was incubated for 1 h at 37° C. The digested lysate was mixed in a 1:1 ratio with Glucose-glo detection mixture as per vendor recommendations (Luciferase detection buffer, Reductase, Reductase substrate, Glucose dehydrogenase, and NAD) in read-out plates (solid white 384-well plates) and incubated for 1 h at RT. The plates were read using a plate reader with luminescence capabilities. Each compound concentration Relative Luminescence Unit (RLU) was averaged and normalized to the average RLU of the positive and negative controls to obtain a percentage inhibition. The normalized data vs. concentration was plotted; to determine the half-maximal concentration (IC50), the Levenberg-Marquardt algorithm was used to fit a Hill equation to the dose response data.
# as §2, with “2 assay runs on separate days. […] Unless otherwise specified, IC50 values are reported as the geometric mean of at least two” for “2”
# Sequence of human GYS1 (P13807 whole entry): as above
# Sequence of human GYS1 (P46976 whole entry partner): as the sequence (P46976 whole entry partner) above
IC50 (human GYS1),IC50 (human GYS2),IC50 [1],Structure (SMILES)
> 99.9 µM,> 250 µM,–,"CC(C)c1ccc(C(NC(=O)C2CCCC2C(=O)O)c2cccs2)cc1 (single isomer, unassigned) [Compound 46, (1S or 1R,2R or 2S)-2-(((S or R)-(4-isopropylphenyl)(thiophen-2-yl)methyl)carbamoyl)cyclopentane-1-carboxylic acid]"
0.497 µM,> 100 µM,8.49 µM,"O=C(O)[C@H]1CCC[C@H]1C(=O)N[C@@H](c1ccccc1)c1ccc(C2CCC2)cn1 [Compound 15, (1S,2R)-2-(((S)-(5-cyclobutylpyridin-2-yl)(phenyl)methyl)carbamoyl)cyclopentane-1-carboxylic acid]"
1.58 µM,> 100 µM,27.3 µM,"O=C(O)[C@H]1CCC[C@H]1C(=O)N[C@@H](c1ccccc1)c1ccc(C2CC2)c(F)c1 [Compound 17, (1S,2R)-2-(((S)-(4-cyclopropyl-3-fluorophenyl)(phenyl)methyl)carbamoyl)cyclopentane-1-carboxylic acid]"
0.384 µM,28.6 µM,16.6 µM,"O=C(O)[C@H]1CCC[C@H]1C(=O)N[C@@H](c1ccccc1)c1ccc(C2CCC2)c(F)c1 [Compound 18, (1S,2R)-2-(((S)-(4-cyclobutyl-3-fluorophenyl)(phenyl)methyl)carbamoyl)cyclopentane-1-carboxylic acid]"
2.82 µM,–,92 µM,"CC(C)c1ccc([C@@H](NC(=O)[C@@H]2CCC[C@@H]2C(=O)O)c2ccccc2NC(N)=O)cc1F [Compound 24, (1S,2R)-2-(((R)-(3-fluoro-4-isopropylphenyl)(2-ureidophenyl)methyl)carbamoyl)cyclopentane-1-carboxylic acid]"
1.61 µM,–,31.3 µM,"CC(C)c1ccc([C@@H](NC(=O)[C@@H]2CCC[C@@H]2C(=O)O)c2cccc3c2NC(=O)C3)cc1 [Compound 30, (1S,2R)-2-(((R)-(4-isopropylphenyl)(2-oxoindolin-7-yl)methyl)carbamoyl)cyclopentane-1-carboxylic acid]"
2.39 µM,–,> 100 µM,"CC(C)c1ccc([C@@H](NC(=O)[C@@H]2CCC[C@@H]2C(=O)O)c2ccn[nH]2)cc1 [Compound 32, (1S,2R)-2-(((R)-(4-isopropylphenyl)(1H-pyrazol-5-yl)methyl)carbamoyl)cyclopentane-1-carboxylic acid]"
0.837 µM,> 100 µM,–,"CC(C)c1ccc([C@@H](NC(=O)[C@@H]2CCC[C@@H]2C(=O)O)c2ccccc2)nc1 [Compound 36, (1S,2R)-2-(((S)-(5-isopropylpyridin-2-yl)(phenyl)methyl)carbamoyl)cyclopentane-1-carboxylic acid]"
0.637 µM,> 87.1 µM,–,"CC(C)c1ccc([C@@H](NC(=O)[C@@H]2CCC[C@@H]2C(=O)O)c2ccccc2)cc1 [Compound 41, (1S,2R)-2-(((S)-(4-isopropylphenyl)(phenyl)methyl)carbamoyl)cyclopentane-1-carboxylic acid]"

# Further lines, the molecule ahead of its results:
Structure (SMILES),IC50 (human GYS1),IC50 (human GYS2),IC50 [1]
"CC(C)c1ccc(C(NC(=O)C2CCCC2C(=O)O)c2cccs2)cc1 (single isomer, unassigned) [Compound 43, (1R or 1S,2S or 2R)-2-(((S or R)-(4-isopropylphenyl)(thiophen-2-yl)methyl)carbamoyl)cyclopentane-1-carboxylic acid]",19.8 µM,> 250 µM,–
"CC(C)c1ccc(C(NC(=O)C2CCCC2C(=O)O)c2cccs2)cc1 (single isomer, unassigned) [Compound 44, (1R or 1S,2S or 2R)-2-(((R or S)-(4-isopropylphenyl)(thiophen-2-yl)methyl)carbamoyl)cyclopentane-1-carboxylic acid]",12.9 µM,11.7 µM,–
"CC(C)c1c(F)cc([C@@H](NC(=O)[C@@H]2CCC[C@@H]2C(=O)O)c2ccccc2)cc1F [Compound 8, (1S,2R)-2-(((S)-(3,5-difluoro-4-isopropylphenyl)(phenyl)methyl)carbamoyl)cyclopentane-1-carboxylic acid]",0.239 µM,> 100 µM,3.93 µM
"CC(C)c1ccc([C@@H](NC(=O)[C@@H]2CCC[C@@H]2C(=O)O)c2cccnc2N)cc1 [Compound 29, (1S,2R)-2-(((R)-(2-aminopyridin-3-yl)(4-isopropylphenyl)methyl)carbamoyl)cyclopentane-1-carboxylic acid]",1.52 µM,–,65.6 µM
"O=C(O)[C@H]1CCC[C@H]1C(=O)N[C@@H](c1ccccc1)c1ccc(C2CCC2)cc1 [Compound 34, (1S,2R)-2-(((S)-(4-cyclobutylphenyl)(phenyl)methyl)carbamoyl)cyclopentane-1-carboxylic acid]",0.426 µM,67.1 µM,–
"Cc1ccccc1[C@H](NC(=O)[C@@H]1CCC[C@@H]1C(=O)O)c1ccc(C(C)C)cc1 [Compound 40, (1S,2R)-2-(((R)-(4-isopropylphenyl)(o-tolyl)methyl)carbamoyl)cyclopentane-1-carboxylic acid]",0.39 µM,10.8 µM,–
"CC(C)c1ccc([C@@H](NC(=O)[C@@H]2CCCC[C@@H]2C(=O)O)c2cccs2)cc1 [Compound 42, (1S,2R)-2-(((R)-(4-isopropylphenyl)(thiophen-2-yl)methyl)carbamoyl)cyclohexane-1-carboxylic acid]",0.961 µM,> 77.6 µM,–

# From patent US20260021085A1, “CYCLOALKYL CARBOXYLIC ACID DERIVATIVES AS INHIBITORS OF GLYCOGEN SYNTHASE 1 (GYS1) AND METHODS OF USE THEREOF” (Maze Therapeutics, Inc., priority 2022, published 2026)
